Reference: ChEMBL document CHEMBL1145224, “Novel 1beta-methylcarbapenems with isoxazoloethenyl moieties containing carboxylic acid sodium salt” (Bioorg Med Chem Lett, 2005)
Converted amounts (≈) assume the structure as drawn.

Assays:
[1] = test system: Streptococcus pneumoniae; test: Minimum inhibitory concentration against Streptococcus pneumoniae (n=22); (Range = 0.008-0.25); format: functional
[2] = test system: Escherichia coli; test: Minimum inhibitory concentration against Escherichia coli 1507 E strain; format: functional
[3] = test system: Salmonella typhimurium; test: Minimum inhibitory concentration against Salmonella Typhimurium; format: functional, Salmonella enterica subsp. enterica serovar Typhimurium; conditions: Salmonella enterica
[4] = test system: Escherichia coli; test: Minimum inhibitory concentration against Escherichia coli 078 strain; format: functional
[5] = test system: Enterobacter cloacae; test: Minimum inhibitory concentration against Enterobacter cloacae 1321E strain; format: functional
[6] = test system: Klebsiella aerogenes; test: Minimum inhibitory concentration against Klebsiella aerogenes 1522E strain; format: functional
[7] = test system: Streptococcus pyogenes; test: Minimum inhibitory concentration against Streptococcus pyogenes 308A strain; format: functional
[8] = test system: Pseudomonas aeruginosa; test: Minimum inhibitory concentration against was determined against Pseudomonas aeruginosa 9027 strain; format: functional
[9] = test system: Pseudomonas aeruginosa; test: Minimum inhibitory concentration against Pseudomonas aeruginosa 1592E strain; format: functional
[10] = test system: Pseudomonas aeruginosa; test: Minimum inhibitory concentration against Pseudomonas aeruginosa 1771M strain; format: functional
[11] = test system: Staphylococcus aureus; test: Minimum inhibitory concentration against […] 285 strain; format: functional
[12] = test system: Staphylococcus aureus; test: Minimum inhibitory concentration against […] 503 strain; format: functional
[13] = test system: Pseudomonas aeruginosa; test: Minimum inhibitory concentration against Pseudomonas aeruginosa (n=60); (Range=0.06-128); format: functional
[14] = test system: Klebsiella pneumoniae; test: Minimum inhibitory concentration against Klebsiella pneumoniae (n=30); (Range = 0.015-0.25); format: functional
[15] = test system: Moraxella catarrhalis; test: Minimum inhibitory concentration against Moraxella catarrhalis (n=22); (Range=0.015-0.06); format: functional
[16] = test system: Streptococcus pneumoniae; test: Minimum inhibitory concentration of the compound was determined against Streptococcus pneumoniae (n=22);(Range = 0.008-0.25); format: functional
[17] = Clearance value at a single intravenous administration of 5 mg/kg in dog; format: ADME, organism-based, Canis lupus familiaris; design: dose 5 mg/kg, route intravenous; conditions: in vivo
[18] = Clearance value at a single intravenous administration of 20 mg/kg in rat; format: ADME, organism-based; design: dose 20 mg/kg, route intravenous; conditions: in vivo
[19] = Half life at a single intravenous administration of 5 mg/kg in dog; format: ADME, organism-based, Canis lupus familiaris; design: dose 5 mg/kg, route intravenous; conditions: in vivo
[20] = Half life at a single intravenous administration of 20 mg/kg in rat; format: ADME, organism-based; design: dose 20 mg/kg, route intravenous; conditions: in vivo
[21] = Area under concentration time at a single intravenous administration of 5 mg/kg in dog; format: ADME, organism-based, Canis lupus familiaris; design: dose 5 mg/kg, route intravenous; conditions: in vivo
[22] = Area under concentration time at a single intravenous administration of 20 mg/kg in rat; format: ADME, organism-based; design: dose 20 mg/kg, route intravenous; conditions: in vivo
[23] = test system: Moraxella catarrhalis; test: Minimum inhibitory concentration against Moraxella catarrhalis (n=22); (Range=0.008-0.6); format: functional
[24] = test system: Klebsiella pneumoniae; test: Minimum inhibitory concentration against Klebsiella pneumoniae (n=30); (Range = 0.03-0.25); format: functional
[25] = test system: Moraxella catarrhalis; test: Minimum inhibitory concentration against Moraxella catarrhalis (n=22); (Range=0.008-0.06); format: functional
[26] = test system: Pseudomonas aeruginosa; test: Minimum inhibitory concentration against Pseudomonas aeruginosa (n=60); (Range=0.025-128); format: functional
[27] = test system: Klebsiella pneumoniae; test: Minimum inhibitory concentration against Klebsiella pneumoniae (n=30); (Range = […]); format: functional
[28] = test system: Moraxella catarrhalis; test: Minimum inhibitory concentration against Moraxella catarrhalis (n=22); (Range=0.008-0.12); format: functional
[29] = test system: Pseudomonas aeruginosa; test: Minimum inhibitory concentration against Pseudomonas aeruginosa (n=60); (Range=1-128); format: functional
[30] = test system: Klebsiella pneumoniae; test: Minimum inhibitory concentration against Klebsiella pneumoniae (n=30); (Range=0.008-1); format: functional
[31] = test system: Moraxella catarrhalis; test: Minimum inhibitory concentration against Moraxella catarrhalis (n=22); (Range = 0.008-0.12); format: functional
[32] = test system: Streptococcus pneumoniae; test: Minimum inhibitory concentration against Streptococcus pneumoniae (n=22); (Range=0.008-1); format: functional
[33] = test system: Klebsiella pneumoniae; test: Minimum inhibitory concentration against Klebsiella pneumoniae (n=30); (Range=[…]); format: functional
[34] = test system: Klebsiella pneumoniae; test: Minimum inhibitory concentration against Klebsiella pneumoniae (n=30); (Range=0.06-1); format: functional
[35] = test system: Pseudomonas aeruginosa; test: Minimum inhibitory concentration against Pseudomonas aeruginosa (n=60); (Range=0.5-128); format: functional
[36] = test system: Streptococcus pneumoniae; test: Minimum inhibitory concentration against Streptococcus pneumoniae (n=22); (Range = 0.008-0.5); format: functional
[37] = test system: Moraxella catarrhalis; test: Minimum inhibitory concentration against Moraxella catarrhalis (n=22); (Range=0.008-0.25); format: functional
[38] = test system: Pseudomonas aeruginosa; test: microbe, parasite or virus in culture
[39] = test system: Moraxella catarrhalis; test: microbe, parasite or virus in culture
[40] = test system: Klebsiella pneumoniae; test: Minimum inhibitory concentration against Klebsiella pneumoniae (n=30); (Range = 0.015-0.06); format: functional
[41] = test system: Moraxella catarrhalis; test: Minimum inhibitory concentration against Moraxella catarrhalis (n=22); (Range=0.008-0.03); format: functional

Row | MIC90 [1] | MIC [2] | MIC [3] | MIC [4] | MIC [5] | MIC [6] | MIC [7] | MIC [8] | MIC [9] | MIC [10] | MIC [11] | MIC [12] | clearance [17] | clearance [18] | half-life [19] | half-life [20] | AUC [21] | AUC [22] | SMILES | MIC50 [13] | MIC90 [13] | other results
1 | 0.12 µg/mL | 0.025 µg/mL | 0.049 µg/mL | 0.013 µg/mL | 0.025 µg/mL | 0.049 µg/mL | 49 ng/mL | 0.195 µg/mL | 0.195 µg/mL | 0.049 µg/mL | 0.195 µg/mL | 0.195 µg/mL | 6 mL/min/kg | 13 mL/min/kg | 41 min | 12 min | 861 µg·min/mL | 1520 µg·min/mL | C[C@@H](O)[C@H]1C(=O)N2C(C(=O)O)=C(S[C@@H]3CN[C@H](/C=C/c4cc(C(=O)[O-])no4)C3)[C@H](C)[C@H]12.[Na+] | 4 µg/mL | 64 µg/mL | MIC50 [14]: 0.03 µg/mL; MIC90 [14]: 0.12 µg/mL; MIC50 [15]: 0.03 µg/mL; MIC90 [15]: 0.06 µg/mL; MIC50 [16]: 8 ng/mL
2 |  | 0.025 µg/mL | 0.049 µg/mL | 0.025 µg/mL | 0.025 µg/mL | 0.049 µg/mL | 7 ng/mL | 0.195 µg/mL | 0.391 µg/mL | 1.56 µg/mL | 0.195 µg/mL | 0.098 µg/mL |  |  |  |  |  |  | C[C@@H](O)[C@H]1C(=O)N2C(C(=O)O)=C(S[C@@H]3CN[C@H](/C=C/c4cc(C(=O)[O-])on4)C3)[C@H](C)[C@H]12.[Na+] |  |  | 
3 | 0.12 µg/mL (≈ 0.296 µM) | 0.025 µg/mL (≈ 0.0617 µM) | 0.049 µg/mL (≈ 0.121 µM) | 0.025 µg/mL (≈ 0.0617 µM) | 0.025 µg/mL (≈ 0.0617 µM) | 0.049 µg/mL (≈ 0.121 µM) | 4 ng/mL (≈ 0.00986 µM) | 0.195 µg/mL (≈ 0.481 µM) | 0.195 µg/mL (≈ 0.481 µM) | 0.098 µg/mL (≈ 0.242 µM) | 0.049 µg/mL (≈ 0.121 µM) | 0.098 µg/mL (≈ 0.242 µM) | 27 mL/min/kg | 18 mL/min/kg | 23 min | 16 min | 186 µg·min/mL | 1130 µg·min/mL | CC1C(S[C@@H]2CN[C@H](/C=C/c3ccno3)C2)=C(C(=O)O)N2C(=O)[C@H]([C@@H](C)O)[C@@H]12 (single isomer, unassigned) |  |  | MIC90 [23]: 0.03 µg/mL (≈ 0.074 µM); MIC50 [1]: 0.03 µg/mL (≈ 0.074 µM); MIC50 [24]: 0.06 µg/mL (≈ 0.148 µM); MIC90 [24]: 0.12 µg/mL (≈ 0.296 µM); MIC50 [25]: 0.015 µg/mL (≈ 0.037 µM); MIC50 [26]: 8 µg/mL (≈ 19.7 µM); MIC90 [26]: 64 µg/mL (≈ 158 µM)
4 |  |  |  |  |  |  |  |  |  |  |  |  |  |  |  |  |  |  | C[C@@H](O)[C@H]1C(=O)N2C(C(=O)O)=C(S[C@@H]3CN[C@H](C(=O)Nc4cccc(C(=O)O)c4)C3)[C@H](C)[C@H]12 [ERTAPENEM] |  |  | MIC90 [27]: 0.5 µg/mL (≈ 1.05 µM); MIC90 [28]: 0.03 µg/mL (≈ 0.0631 µM); MIC50 [29]: 32 µg/mL (≈ 67.3 µM); MIC90 [29]: 128 µg/mL (≈ 269 µM); MIC50 [30]: 0.03 µg/mL (≈ 0.0631 µM); MIC50 [31]: 0.015 µg/mL (≈ 0.0315 µM); MIC50 [32]: 0.5 µg/mL (≈ 1.05 µM); MIC90 [32]: 1 µg/mL (≈ 2.1 µM)

Row | SMILES | MIC90 [1] | MIC [2] | MIC [3] | MIC [4] | MIC [5] | MIC [6] | MIC [7] | MIC [8] | MIC [9] | MIC [10] | MIC [11] | MIC [12] | clearance [17] | clearance [18] | half-life [19] | half-life [20] | AUC [21] | AUC [22] | MIC50 [13] | MIC90 [13] | other results
5 | C[C@@H](O)[C@H]1C(=O)N2C(C(=O)O)=C(SCCNC=N)C[C@H]12 [IMIPENEM ANHYDROUS] |  | 0.098 µg/mL (≈ 0.327 µM) | 0.781 µg/mL (≈ 2.61 µM) | 0.098 µg/mL (≈ 0.327 µM) | 0.098 µg/mL (≈ 0.327 µM) | 0.195 µg/mL (≈ 0.651 µM) | 4 ng/mL (≈ 0.0134 µM) | 0.391 µg/mL (≈ 1.31 µM) | 0.781 µg/mL (≈ 2.61 µM) | 0.195 µg/mL (≈ 0.651 µM) | 0.013 µg/mL (≈ 0.0434 µM) | 0.098 µg/mL (≈ 0.327 µM) |  |  |  |  |  |  |  |  | MIC90 [33]: 0.5 µg/mL (≈ 1.67 µM); MIC50 [34]: 0.12 µg/mL (≈ 0.401 µM); MIC50 [35]: 2 µg/mL (≈ 6.68 µM); MIC50 [36]: 0.12 µg/mL (≈ 0.401 µM); MIC90 [36]: 0.25 µg/mL (≈ 0.835 µM); MIC50 [37]: 0.06 µg/mL (≈ 0.2 µM); MIC90 [38]: 16 µg/mL (≈ 53.4 µM); MIC90 [39]: 0.06 µg/mL (≈ 0.2 µM)
6 | C[C@@H](O)[C@H]1C(=O)N2C(C(=O)O)=C(S[C@@H]3CN[C@H](C(=O)N(C)C)C3)[C@H](C)[C@H]12 [MEROPENEM] |  | 0.025 µg/mL (≈ 0.0652 µM) | 0.049 µg/mL (≈ 0.128 µM) | 0.025 µg/mL (≈ 0.0652 µM) | 0.025 µg/mL (≈ 0.0652 µM) | 0.049 µg/mL (≈ 0.128 µM) | 13 ng/mL (≈ 0.0339 µM) | 0.195 µg/mL (≈ 0.509 µM) | 0.195 µg/mL (≈ 0.509 µM) | 0.049 µg/mL (≈ 0.128 µM) | 0.195 µg/mL (≈ 0.509 µM) |  | 7 mL/min/kg | 52 mL/min/kg |  |  | 695 µg·min/mL | 383 µg·min/mL | 2 µg/mL (≈ 5.22 µM) | 16 µg/mL (≈ 41.7 µM) | MIC50 [40]: 0.03 µg/mL (≈ 0.0782 µM); MIC90 [40]: 0.06 µg/mL (≈ 0.156 µM); MIC50 [41]: 8 ng/mL (≈ 0.0209 µM); MIC90 [41]: 8 ng/mL (≈ 0.0209 µM); MIC50 [36]: 0.5 µg/mL (≈ 1.3 µM); MIC90 [36]: 0.5 µg/mL (≈ 1.3 µM)
